Data from patent US11242337B2, “Compounds useful for treating gastrointestinal tract disorders” (Ardelyx, Inc., priority 2017, dated 2022).
Structures can show the parent of a compound that is named as a salt.

Columns and labels:
NHE3 [1] = biological target: T1, NHE3 (Homo sapiens, UniProt P48764); assay: Cell-based assay of NHE-3 activity (persistent inhibition), human; conditions: human Persistence, 60 min incubation then washout
T1 construct: expressed in transfected cells
T1 sequence (P48764 26-834): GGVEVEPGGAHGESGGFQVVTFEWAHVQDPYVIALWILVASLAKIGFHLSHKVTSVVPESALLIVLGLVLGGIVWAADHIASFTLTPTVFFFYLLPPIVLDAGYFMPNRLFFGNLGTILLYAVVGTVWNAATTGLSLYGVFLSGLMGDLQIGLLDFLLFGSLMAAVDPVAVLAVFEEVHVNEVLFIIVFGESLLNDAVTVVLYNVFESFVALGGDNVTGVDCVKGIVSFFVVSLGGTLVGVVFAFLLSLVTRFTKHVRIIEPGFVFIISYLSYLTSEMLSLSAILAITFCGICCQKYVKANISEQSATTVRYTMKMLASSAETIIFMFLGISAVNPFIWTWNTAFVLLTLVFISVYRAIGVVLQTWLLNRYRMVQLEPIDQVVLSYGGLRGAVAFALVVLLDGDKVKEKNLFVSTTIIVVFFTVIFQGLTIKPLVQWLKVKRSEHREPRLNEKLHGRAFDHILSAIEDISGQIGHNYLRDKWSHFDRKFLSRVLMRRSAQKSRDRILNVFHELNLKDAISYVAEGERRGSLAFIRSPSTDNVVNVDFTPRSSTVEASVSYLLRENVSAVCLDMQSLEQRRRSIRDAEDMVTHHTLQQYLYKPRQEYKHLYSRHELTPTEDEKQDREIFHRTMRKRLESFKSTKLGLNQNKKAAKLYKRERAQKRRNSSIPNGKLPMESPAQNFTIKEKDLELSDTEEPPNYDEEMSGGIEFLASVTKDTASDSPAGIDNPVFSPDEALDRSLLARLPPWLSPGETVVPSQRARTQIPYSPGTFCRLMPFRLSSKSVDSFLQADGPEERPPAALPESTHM
T1 sequence (Q99653 2-195 partner limits assumed): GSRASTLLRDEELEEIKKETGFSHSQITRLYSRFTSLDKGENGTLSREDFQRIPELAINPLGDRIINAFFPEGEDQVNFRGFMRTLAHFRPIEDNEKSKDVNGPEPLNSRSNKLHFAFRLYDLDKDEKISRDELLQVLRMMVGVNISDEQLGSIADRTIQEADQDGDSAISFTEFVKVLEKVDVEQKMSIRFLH
Summary of the method: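 PS120 fibroblasts expressing human NHE3 with NHERF2 exposed to 0-30 μM compound for 60 min at RT, then washed out; cells acid-loaded by NH4Cl prepulse with BCECF-AM and Na+-free buffer. Na+-driven pH recovery started 10 min post-washout; initial rate of BCECF ratio change (FLIPR) taken as activity.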

NHE3 [2] = biological target: T1, NHE3; assay: Cell-based assay of NHE-3 activity (pre-incubation inhibition), human; conditions: human Preincubation
Summary of the method: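 PS120 fibroblasts stably expressing human NHE3 and NHERF2, loaded 30 min at 37 °C with 5 μM BCECF-AM in NH4Cl buffer, then acidified 10 min at room temperature in Na+-free buffer with 0–30 μM compound. Initial rate of BCECF fluorescence ratio change (FLIPR) per minute taken as Na+/H+ activity.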

Compound | % inhibition (NHE3 [1]) | pIC50 (NHE3 [1]) | % inhibition (NHE3 [2]) | pIC50 (NHE3 [2]; 0-30 μM test compound) | IC50 (NHE3 [1]) [nM] | IC50 (NHE3 [2]; 0-30 μM test compound) [nM]
Cc1cc(S(=O)(=O)NCCOCCOCCNC(=O)NCCCCNC(=O)NCCOCCOCCNS(=O)(=O)c2ccc(O[C@H]3c4cc(Cl)cc(Cl)c4C[C@@H]3N3CCN(C(=O)N(C)C)CC3)c(C)c2)ccc1O[C@H]1c2cc(Cl)cc(Cl)c2C[C@@H]1N1CCN(C(=O)N(C)C)CC1 [Example 77, 4-[(1S,2S)-4,6-dichloro-1-[4-[(2-[2-[2-([[4-([[2-(2-[2-[(4-[[(1S,2S)-4,6-dichloro-2-[4-(dimethylcarbamoyl)piperazin-1-yl]-2,3-dihydro-1H-inden-1-yl]oxy]-3-methylbenzene)sulfonamido]ethoxy]ethoxy)ethyl]carbamoyl]amino)butyl]carbamoyl]amino)ethoxy]ethoxy]ethyl)sulfamoyl]-2-methylphenoxy]-2,3-dihydro-1H-inden-2-yl]-N,N-dimethylpiperazine-1-carboxamide; bis(trifluoroacetic acid)] | A (NHE3 < 40%) | A (NHE3 pIC50 < 6) | C (>70%) | A (NHE3 pIC50 < 6) |  | 
Cc1cc(S(=O)(=O)NCCOCCOCCNC(=O)NCCCCNC(=O)NCCOCCOCCNS(=O)(=O)c2cc(C)c(O[C@H]3c4cc(Cl)cc(Cl)c4C[C@@H]3N3CCC[C@@H](N)C3)c(C)c2)cc(C)c1O[C@H]1c2cc(Cl)cc(Cl)c2C[C@@H]1N1CCC[C@@H](N)C1 [Example 79, 3-[2-(2-[2-[(4-[[(1S,2S)-2-[(3R)-3-Aminopiperidin-1-yl]-4,6-dichloro-2,3-dihydro-1H-inden-1-yl]oxy]-3,5-dimethylbenzene)sulfonamido]ethoxy]ethoxy)ethyl]-1-[4-([[2-(2-[2-[(4-[[(1S,2S)-2-[(3R)-3-aminopiperidin-1-yl]-4,6-dichloro-2,3-dihydro-1H-inden-1-yl]oxy]3,5-dimethylbenzene)sulfonamido]ethoxy]ethoxy)ethyl]carbamoyl]amino)butyl]urea; hydrochloride] | C (>70%) |  | C (>70%) |  | 100 to 1000 | 
Cc1cc(S(=O)(=O)NCCOCCOCCNC(=O)NCCCCNC(=O)NCCOCCOCCNS(=O)(=O)c2cc(C)c(O[C@H]3c4cc(Cl)cc(Cl)c4C[C@@H]3N(C)C)c(C)c2)cc(C)c1O[C@H]1c2cc(Cl)cc(Cl)c2C[C@@H]1N(C)C [Example 80] | B (40-70%) |  | B (40-70%) |  | 100 to 1000 | 100 to 1000
Cc1cc(S(=O)(=O)NCCOCCOCCNC(=O)NCCCCNC(=O)NCCOCCOCCNS(=O)(=O)c2cc(C)c(O[C@H]3c4cc(Cl)cc(Cl)c4C[C@@H]3N3CCC[C@@H](N)C3)cc2C)c(C)cc1O[C@H]1c2cc(Cl)cc(Cl)c2C[C@@H]1N1CCC[C@@H](N)C1 [Example 81, 3-[2-(2-[2-[(4-[[(1S,2S)-2-[(3R)-3-Aminopiperidin-1-yl]-4,6-dichloro-2,3-dihydro-1H-inden-1-yl]oxy]-2,5-dimethylbenzene)sulfonamido]ethoxy]ethoxy)ethyl]-1-[4-([[2-(2-[2-[(4-[[(1S,2S)-2-[(3R)-3-aminopiperidin-1-yl]-4,6-dichloro-2,3-dihydro-1H-inden-1-yl]oxy]-2,5-dimethylbenzene)sulfonamido]ethoxy]ethoxy)ethyl]carbamoyl]amino)butyl]urea] | C (>70%) |  | C (>70%) | C (NHE3 pIC50 > 7) | 100 to 1000 | 
Cc1cc(S(=O)(=O)NCCOCCOCCNC(=O)NCCCCNC(=O)NCCOCCOCCNS(=O)(=O)c2cc(C)c(O[C@H]3c4cc(Cl)cc(Cl)c4C[C@@H]3N(C)C)cc2C)c(C)cc1O[C@H]1c2cc(Cl)cc(Cl)c2C[C@@H]1N(C)C [Example 82, 3-[2-(2-[2-[(4-[[(1S,2S)-4,6-Dichloro-2-(dimethylamino)-2,3-dihydro-1H-inden-1-yl]oxy]-2,5-dimethylbenzene)sulfonamido]ethoxy]ethoxy)ethyl]-[4-([[2-(2-[2-[(4-[[(1S,2S)-4,6-dichloro-2-(dimethylamino)-2,3-dihydro-1H-inden-1-yl]oxy]-2,5-dimethylbenzene)sulfonamido]ethoxy]ethoxy)ethyl]carbamoyl]amino)butyl]urea] | C (>70%) |  | B (40-70%) | C (NHE3 pIC50 > 7) | 100 to 1000 | 
Cc1cc(S(=O)(=O)NCCOCCOCCNC(=O)NCCCCNC(=O)NCCOCCOCCNS(=O)(=O)c2cc(C)c(O[C@H]3c4cc(Cl)cc(Cl)c4C[C@@H]3N3CCC[C@@H](N)C3)c(F)c2)cc(F)c1O[C@H]1c2cc(Cl)cc(Cl)c2C[C@@H]1N1CCC[C@@H](N)C1 [Example 83, 1-[2-(2-[2-[(4-[[(1S,2S)-2-[(3R)-3-Aminopiperidin-1-yl]-4,6-dichloro-2,3-dihydro-1H-inden-1-yl]oxy]-3-fluoro-5-methylbenzene)sulfonamido]ethoxy]ethoxy)ethyl]-3-[4-([[2-(2-[2-[(4-[[(1S,2S)-2-[(3R)-3-aminopiperidin-1-yl]-4,6-dichloro-2,3-dihydro-1H-inden-1-yl]oxy]-3-fluoro-5-methylbenzene)sulfonamido]ethoxy]ethoxy)ethyl]carbamoyl]amino)butyl]urea; hydrochloride] | C (>70%) |  | C (>70%) | C (NHE3 pIC50 > 7) | 100 to 1000 | 
Cc1cc(S(=O)(=O)NCCOCCOCCNC(=O)NCCCCNC(=O)NCCOCCOCCNS(=O)(=O)c2cc(C)c(O[C@H]3c4cc(Cl)cc(Cl)c4C[C@@H]3N(C)C)c(F)c2)cc(F)c1O[C@H]1c2cc(Cl)cc(Cl)c2C[C@@H]1N(C)C [Example 84, 1-[2-(2-[2-[(4-[[(1S,2S)-4,6-Dichloro-2-(dimethylamino)-2,3-dihydro-1H-inden-1-yl]oxy]-3-fluoro-5-methylbenzene)sulfonamido]ethoxy]ethoxy)ethyl]-3-[4-([[2-(2-[2-[(4-[[(1S,2S)-4,6-dichloro-2-(dimethylamino)-2,3-dihydro-1H-inden-1-yl]oxy]-3-fluoro-5-methylbenzene)sulfonamido]ethoxy]ethoxy)ethyl]carbamoyl]amino)butyl]urea] | C (>70%) | C (NHE3 pIC50 > 7) | C (>70%) | C (NHE3 pIC50 > 7) |  | 
N[C@@H]1CCCN([C@H]2Cc3c(Cl)cc(Cl)cc3[C@@H]2Oc2c(F)cc(S(=O)(=O)NCCOCCOCCNC(=O)NCCCCNC(=O)NCCOCCOCCNS(=O)(=O)c3cc(F)c(O[C@H]4c5cc(Cl)cc(Cl)c5C[C@@H]4N4CCC[C@@H](N)C4)c(F)c3)cc2F)C1 [Example 85, 3-[2-(2-[2-[(4-[[(1S,2S)-2-[(3R)-3-Aminopiperidin-1-yl]-4,6-dichloro-2,3-dihydro-1H-1-inden-1-yl]oxy]-3,5-difluorobenzene)sulfonamido]ethoxy]ethoxy)ethyl]-1-[4-([[2-(2-[2-[(4-[[(1S,2S)-2-[(3R)-3-aminopiperidin-1-yl]-4,6-dichloro-2,3-dihydro-1H-inden-1-yl]oxy]-3,5-difluorobenzene)sulfonamido]ethoxy]ethoxy)ethyl]carbamoyl]amino)butyl]urea; bis(trifluoroacetic acid)] | C (>70%) |  | C (>70%) |  |  | 
